One assay has as its system MtbGyrase GyrA mutants. The assay is classed as biochemical, M. tuberculosis.
The subject of assay [1] is M. tuberculosis GyrA D94N mutant. The assay is classed as cell-based.
In assay [2] the test system is M. tuberculosis H37Rv mc^26020.
The test system of assay [3] is M. tuberculosis bacA mutants (L469P, L470P and S577R; bacA deletion mutant). The assay is classed as cell-based.

Values joined by “and” are separate entries in the source; they are usually repeats but may differ in a detail not shown here. Equal values may be shown once. *1 amine or outer side, *2 acyl side, *3 side chain or, on linkers, in order; H or OH if unused. Where a SMILES comes first, the peptide text is derived from it. Bridges are numbered along the chain shown (N, C = ends). [ ]: non-standard residue; d: D form. The star is where a group is joined. ξ: configuration not given here. ξThr(3R)(O-yl) = C[C@@H](O[*:3])C(N[*:1])C(=O)[*:2]; βAsp = O=C(O)[C@H](CC(=O)[*:2])N[*:1]; His(π-Me) = Cn1cncc1C[C@H](N)C(=O)O; For = O=C*

What is called MIC is the smallest concentration in the dilution series that meets the test's criterion for growth inhibition. Low readings indicate inhibition by little substance, high ones a need for much substance. Consider `C[C@H]1OC(=O)C[C@@H](C(=O)O)NC(=O)[C@H](CO)NC(=O)[C@@H](CCCNC(=N)N)NC(=O)CNC(=O)[C@H](Cc2ccccc2)NC(=O)[C@@H](CO)NC(=O)C[C@@H](C(=O)O)NC(=O)[C@H](Cc2cncn2C)NC(=O)C1NC(=O)[C@@H](CCCNC(=N)N)NC(=O)[C@@H](NC(=O)[C@H](Cc1c[nH]c2ccccc12)NC=O)[C@@H](C)O` (stereo partly drawn) [compound of Formula IV] (For-WT[dR][ξThr(3R)(O-yl)][His(π-Me)][βAsp][dS]FG[dR]SD-OH; ester 4-12), for which, in the assay with MtbGyrase GyrA mutants, the “drug-induced cleavage with MtbGyrAP353L and MtbGyrAA32V” value was “relatively strong resistance”; the “reduced cleavage compared to wildtype MtbGyrase” value lay in the range of 5 to 100 fold. In assay [1], this molecule registered an MIC of 0.25 µg/mL. Also, in assay [2], the “frequency of highly resistant mutants” value is 6.1×10^−9 to 1.7×10^−8 and the “frequency of resistant mutants” value is recorded as 7.2×10^−6 to 1.6×10^−5. Moreover, in assay [3], the “MIC against bacA mutants” value is 8 to 16 µg/mL and 8 µg/mL; the “MIC against bacA mutants as multiple of wild-type MIC” value is 32-64 ×MIC and 32 ×MIC.
